Test results from publication PMC4000071 (Journal of Toxicologic Pathology, 2014).
Read-outs that look alike come from different tables or passages of the source.

Key:
rats = settings: cited from earlier work
dogs = settings: cited from earlier work
phospholipidosis (PLD) = experiment: in vitro PLD screen; assay type: cell-based; settings: read-out: EC50 (phospholipogenic, in vitro)

Compound: CN(C)CCCN1c2ccccc2CCc2ccccc21 [imipramine]
- PLD in nervous tissues (rats): caused PLD in retina and DRG

Compound: CCCCc1oc2ccccc2c1C(=O)c1cc(I)c(OCCN(CC)CC)c(I)c1 [amiodarone]
- corneal microdeposits (incidence) (dogs; after 6 weeks): 1 of 6
- alteration in the retina or optic nerve (dogs; after 11 weeks of dosing): did not cause any alteration in the retina or optic nerve

Compound: CCN(CC)CCCC(C)Nc1ccnc2cc(Cl)ccc12 (stereo not drawn) [chloroquine]
- EC50 (phospholipidosis (PLD)): < 20 µM

Compound: C1CCC(C(CC2CCCCN2)C2CCCCC2)CC1 (stereo not drawn) [perhexiline]
- EC50 (phospholipidosis (PLD)): < 20 µM

Compound: CC[C@@H]([C@H](C)O)n1ncn(-c2ccc(N3CCN(c4ccc(OC[C@@H]5CO[C@@](Cn6cncn6)(c6ccc(F)cc6F)C5)cc4)CC3)cc2)c1=O [posaconazole]
- PLD (dogs; chronic administration): caused PLD in DRG and medulla oblongata neurons in the brain
- neuronal degeneration or necrosis (dogs; chronic administration): no evidence of neuronal degeneration or necrosis

Compound: CNCCC(Oc1ccc(C(F)(F)F)cc1)c1ccccc1 (stereo not drawn) [fluoxetine]
- neuronal degeneration or neurological findings (dogs; after 1 year of dosing): no neuronal degeneration or neurological findings were observed
- PLD in nervous tissues (rats): caused PLD in retinas
- PLD-like vacuolation in nerve cells (rats): PLD-like vacuolation in nerve cells in the thalamus, cerebellum, spinal cord and ganglion

Compound: CN(C)CCCC1(c2ccc(F)cc2)OCc2cc(C#N)ccc21 (stereo not drawn) [citalopram]
- PLD (dogs): did not cause PLD
- PLD in nervous tissues (rats): caused PLD in 1 sympathetic ganglion, none or very weak PLD in retinal and trigeminal ganglia, and hypothalamic neurosecretory perikarya
